Test results taken from patent US7728128B2, “Dibenzo[c,h][1,5]naphthyridines and their use as DNA probes” (Institut National de la Sante et de la Recherche Medicate …, priority 2006, dated 2010).

What was measured:
[1] = tested on: Methanol-fixed primary human fibroblasts; experiment: nuclear fluorescence in fixed cells under continuous illumination; assay type: cell-based
Protocol: Primary human skin fibroblasts were grown on poly-D-lysine-coated glass coverslips and fixed in cold (−20° C.) anhydrous methanol for 15 min. Samples were re-hydrated in PBS (150 mM NaCl, 20 mM Na-phosphate, pH 7.2), rinsed with 10% PBS (diluted with water) and stained with 120 μM compound I in 10% PBS for 15 min at room temperature in the dark. Samples were mounted, without washing, using the FluorSave™ mounting medium (Calbiochem) or Mowiol and analysed within 3 hours. For image acquisition (FIG. 5B,D) cells were illuminated continuously (open shutter) for 30 min using an Omega filter set XF100-2 (see above). […] Fluorescence of each region at the last time point was taken as 100% and fluorescence intensities at the same region at previous time points (frames) were calculated using Microsoft Excel software.
To quantify this effect, live mouse fibroblasts were incubated in the presence of 5 μM compound I and time-lapse video microscopy was used to film the cells. Nuclear fluorescence develops slowly in the nuclei of cells treated with compound I and illuminated continuously using a standard Alexa488/FITC filter set (475AF40, 535AF45) (FIG. 5A). […] To test this possibility, the inventors stained nuclei of fixed cells with compound I and measured nuclear fluorescence during a continuous 30 min illumination. […]

human fibroblasts = experiment: in vivo nuclear fluorescence of human fibroblasts incubated with the molecules, scored in the microscope; assay type: cell-based; design: key: Weak: Staining was defined as “weak”, “moderate” or “strong” based on the nuclear signal/background ratio.; Moderate: Staining was defined as “weak”, “moderate” or “strong” based on the nuclear signal/background ratio.; Strong: Staining was defined as “weak”, “moderate” or “strong” based on the nuclear signal/background ratio; details: 10 μM, 10-60 min (up to 24 hours); Alexa488/FITC filter
Protocol: In this study, three different types of cells were used: Xenopus epithelial cell line XL177 (Miller, L. et al., 1977, In Vitro, 13, 557-563) stably transformed with a YFP-α-tubulin expressing construct (pEYFP-Tub, Clontech), mouse fibroblasts, and primary human skin fibroblasts. XL177 cells were grown at 20° C. in 60% Leibowitz-15 medium, supplemented with antibiotics, 10% fetal calf serum (FCS) and 10 mM HEPES, pH 7.2 with addition of 0.7 mg/ml G418. Cells were plated into glass-bottom 96-well plates (Greiner, Germany) and left to spread for 24 hours before being incubated in the presence of the test compounds from the Curie-CNRS small molecule library (at 25 or 50 μM final concentration) for another 20-24 hours. Mouse and human fibroblasts were grown in DMEM with antibiotics and 10% FCS at 37° C. in the presence of 5% CO2. The cells were observed using a Zeiss Axiovert 200M microscope with a 40× oil immersion objective and a standard Alexa488/FITC filter (Omega, XF100-2; Ex475AF40/Em535AF45/Dichroic505). Subsequent experiments were carried out using smaller concentrations of compound I and incubation times as described in the text and figures legends. For the in vivo tests of compound I-like compounds, the molecules were added to cell culture medium at 10 μM final concentration and incubated with cells 10-60 min (up to 24 hours) prior to scoring.
To get a further insight into how the structural properties of compound I contribute to its binding to DNA, the inventors analysed fourteen structural analogues present in the compound library. Although several of these compounds are fluorescent in vivo, this property went undetected in the initial screen most likely due to the latency period before the appearance of the signal (see below). To evaluate the activity of compound I-like molecules three tests were used: (1) in vivo, the inventors incubated human fibroblasts in the presence of the molecules and scored nuclear fluorescence in the microscope; (2 and 3) in vitro, the inventors looked at the absorption and fluorescence of free molecules before and after addition of plasmid DNA. […] With the exception of compound I and analogues 8 and 12, accurate in vitro measurement of the fluorescence intensities was impossible because the emission peaks for the free molecules were too close to that for the DNA-bound dye. This affected the height of the dye/DNA peaks.

[2] = tested on: dA/dT and dG/dC homopolymers; experiment: fluorescence and absorption with dA/dT and dG/dC homopolymers; assay type: binding
Protocol: Plasmid dsDNA was purified using a Qiagen Maxiprep kit and used in the supercoiled form for absorption and fluorescence studies. E. coli total RNA was bought from Ambion, dA/dT and dG/dC homopolymers were purchased from Amersham Biosciences. Calf thymus (CT) high-molecular weight DNA and Hoechst 33258 were obtained from Sigma-Aldrich. Ethidium bromide was purchased from Amresco.
Spectrometry and fluorimetry were performed using a SpectraMax384 (Molecular Devices) and a Luminescence Spectrometer LS50B (Perkin Elmer). Fluorescence emission of compound I in complex with DNA and RNA was measured in 50 mM Na phosphate buffer, pH 7.2 at room temperature. Before use, total E. coli RNA was heated to 100° C. for 1 min and immediately transferred on ice for 5 min before mixing with compound I solution. All measurements were carried out at room temperature (20-23° C.) in solutions protected from light and incubated for ˜10-15 min after dilution. The units of b/dye and bp/dye are defined as moles of RNA bases or DNA base pairs per mole of dye. Quantum yield was measured using quinine sulphate as standard as described in (Iupac Commission on Photochemistry, EPA Newsletter of November 1986, 21-29) using FLUOROMAX-3 Spex Spectrofluorometer (HORIBA) and UVIKON XL Spectrophotometer (SECOMAM).
Many intercalating dyes and minor groove-binding DNA dyes can interact differently with dA/dT or dG/dC DNA tracts. […] To investigate the properties of compound I when bound to different DNA tracts, the inventors examined its fluorescence in admixture with an excess of plasmid DNA and either dA/dT or dG/dC homopolymers. […] The peak at 484 nm was much more pronounced when plasmid DNA was replaced by the dA/dT homopolymers (see also FIG. 1F). […] In FIG. 3C, the graphs show emission spectra upon excitation at 371 nm to allow plotting the emission of free compound I. Similar results were obtained when exciting DNA/compound I complexes at 391 and 435 nm.

emission maximum ([2]; dA/dT homopolymers at bp/dye ratio 40): 484 nm
SMILES: COc1ccc2c(c1)c(C)nc1c3ccc(OC)cc3c(NCCCN(C)C)nc21 [Compound I, N′-(2,8-dimethoxy-12-methyl-dibenzo[c,h][1,5]naphthyridin-6-yl)-N,N-dimethyl-propane-1,3-diamine]
average pixel values in a representative nucleus ([1]; plane (1), start of 30 min illumination): 512
average pixel values in a representative nucleus ([1]; plane (1800), end of 30 min illumination): 1434
Images of the in vivo nuclear staining (human fibroblasts): Strong
reduction of fluorescence peak at 438 nm with dG/dC homopolymer ([2]; 1 μM dye, homopolymer at 40 μM): 12.7 fold
fluorescence at 484 nm with dG/dC homopolymer, lower compared to dA/dT ([2]; 1 μM dye, homopolymers at 40 μM): 9.5 fold
difference in fluorescence bound to dA/dT and dG/dC homopolymers ([2]; dye/bp ratio 8, 5 μM dye, emission 484 nm, excitation 435 nm): 23 fold
absorption at 435 nm, dG/dC superior to dA/dT ([2]; higher bp/dye ratios): ~30%
